In patent US10093623B2, “Cyclic amides as MetAP-2 inhibitors” (MERCK PATENT GmbH, priority 2012, dated 2018):

Target: MetAP-2 (Homo sapiens, UniProt P50579)
Assay: MetAP-2 activity measurement (coupled enzymatic reactions, Met-Arg-Ser substrate, dianisidine detection at 450 nm)
Type: biochemical
Settings: Inhibition of MetAP-2; read-out: IC50 enzyme
Procedure, shortened: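 Coupled continuous assay with Met-Arg-Ser tripeptide substrate: released methionine oxidised by L-amino acid oxidase to give H2O2, which peroxidase uses to oxidise dianisidine, followed at 450 nm. Activity taken as slope of absorbance versus time over the visually linear region; dianisidine extinction coefficient converts to mol Met per time.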

Sequence of MetAP-2 (P50579 whole entry, species assumed): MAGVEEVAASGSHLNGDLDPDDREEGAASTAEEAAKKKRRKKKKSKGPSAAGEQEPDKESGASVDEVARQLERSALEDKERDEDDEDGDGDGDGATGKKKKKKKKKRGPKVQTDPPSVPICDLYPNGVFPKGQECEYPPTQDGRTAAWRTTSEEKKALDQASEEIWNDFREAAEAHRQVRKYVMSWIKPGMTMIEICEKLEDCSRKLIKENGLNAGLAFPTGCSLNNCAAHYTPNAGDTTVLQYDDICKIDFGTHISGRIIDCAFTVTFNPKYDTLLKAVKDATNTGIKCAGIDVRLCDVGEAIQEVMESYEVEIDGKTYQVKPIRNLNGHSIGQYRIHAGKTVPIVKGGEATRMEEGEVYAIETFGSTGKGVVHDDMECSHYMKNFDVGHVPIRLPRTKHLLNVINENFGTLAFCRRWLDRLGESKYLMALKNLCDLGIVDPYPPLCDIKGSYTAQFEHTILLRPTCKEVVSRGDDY

IC50 [nM] | SMILES
10 to 1000 | O=C1COCCN1c1ccc(N2CCC(O)(C(=O)NCc3cc(F)cc(Cl)c3)C2=O)cn1 (stereo not shown) [A167, N-(3-Chloro-5-fluorobenzyl)-3-hydroxy-2-oxo-1-[6-(3-oxo-morpholin-4-yl)-pyridin-3-yl]-pyrrolidine-3-carboxamide]
10 to 1000 | O=C(NCCc1cc(F)cc(Cl)c1)C1(O)CCN(c2ccc3[nH]ncc3c2)C1=O (stereo not shown) [A168]
10 to 1000 | O=C(NCc1cc(F)cc(Cl)c1)C1(O)CCN(c2cnn(-c3ccccc3)c2)C1=O (stereo not shown) [A169, N-(3-Chloro-5-fluorobenzyl)-3-hydroxy-2-oxo-1-(1-phenyl-1H-pyrazol-4-yl)pyrrolidine-3-carboxamide]
10 to 1000 | CC(C)(C)OC(=O)N1CCC(n2cc(N3CCC(O)(C(=O)NCc4cc(F)cc(Cl)c4)C3=O)cn2)CC1 (stereo not shown) [A170, tert-Butyl 4-{4-[3-(3-chloro-5-fluorobenzylcarbamoyl)-3-hydroxy-2-oxopyrrolidin-1-yl]-pyrazol-1-yl}-piperidine-1-carboxylate]
10 to 1000 | CCC(=O)Nc1ccc(N2CC[C@](O)(C(=O)NCc3cc(F)cc(Cl)c3)C2=O)cn1 [A171, N-(3-Chloro-5-fluorobenzyl)-(S)-3-hydroxy-2-oxo-1-(6-propionylaminopyridin-3-yl)-pyrrolidine-3-carboxamide]
1000 to 10000 | CCC(=O)Nc1ccc(N2CC[C@@](O)(C(=O)NCc3cc(F)cc(Cl)c3)C2=O)cn1 [A172, N-(3-Chloro-5-fluorobenzyl)-(R)-3-hydroxy-2-oxo-1-(6-propionylaminopyridin-3-yl)-pyrrolidine-3-carboxamide]
10 to 1000 | O=C(NCc1cc(F)cc(Cl)c1)C1(O)CCN(c2ccc(N3CCOCC3)nc2)C1=O (stereo not shown) [A173, N-(3-Chloro-5-fluorobenzyl)-3-hydroxy-1-(6-morpholin-4-yl-pyridin-3-yl)-2-oxopyrrolidine-3-carboxamide]
10 to 1000 | CC(=O)Nc1ccc(N2CCC(O)(C(=O)NCCc3cccc(F)c3)C2=O)cn1 (stereo not shown) [A174, N-[2-(3-Fluorophenyl)ethyl]-1-(6-acetylaminopyridin-3-yl)-3-hydroxy-2-oxopyrrolidine-3-carboxamide]
10 to 1000 | CC(=O)Nc1ccc(N2CCC(O)(C(=O)NCCc3ccccc3F)C2=O)cn1 (stereo not shown) [A175, N-[2-(2-Fluorophenyl)ethyl]-1-(6-acetylaminopyridin-3-yl)-3-hydroxy-2-oxopyrrolidine-3-carboxamide]
10 to 1000 | CC(=O)Nc1ccc(N2CCC(O)(C(=O)NCc3cc(F)cc(F)c3)C2=O)cn1 (stereo not shown) [A176, N-(3,5-Difluorobenzyl)-1-(6-acetylaminopyridin-3-yl)-3-hydroxy-2-oxopyrrolidine-3-carboxamide]
10 to 1000 | NC(=O)c1cccc(N2CCC(O)(C(=O)NCCc3cccc(F)c3)C2=O)c1 (stereo not shown) [A177, N-[2-(3-Fluorophenyl)ethyl]-1-(3-carbamoylphenyl)-3-hydroxy-2-oxopyrrolidine-3-carboxamide]
10 to 1000 | NC(=O)c1cccc(N2CCC(O)(C(=O)NCc3cc(F)cc(F)c3)C2=O)c1 (stereo not shown) [A178, N-(3,5-Difluorobenzyl)-1-(3-carbamoylphenyl)-3-hydroxy-2-oxopyrrolidine-3-carboxamide]
10 to 1000 | NC(=O)c1cccc(N2CCC(O)(C(=O)NCCc3ccccc3F)C2=O)c1 (stereo not shown) [A179, N-[2-(2-Fluorophenyl)ethyl]-1-(3-carbamoylphenyl)-3-hydroxy-2-oxopyrrolidine-3-carboxamide]
10 to 1000 | O=C(NCc1cc(F)cc(Cl)c1)C1(O)CCN(c2cnn(C3CCNCC3)c2)C1=O (stereo not shown) [A180, N-(3-Chloro-5-fluorobenzyl)-3-hydroxy-2-oxo-1-(1-piperidin-4-yl-1H-pyrazol-4-yl)pyrrolidine-3-carboxamide]
10 to 1000 | COc1ccc(CN2CC[C@](O)(C(=O)NCc3cc(F)cc(Cl)c3)C2=O)cc1 [A181, N-(3-Chloro-5-fluorobenzyl)-(S)-3-hydroxy-1-(4-methoxybenzyl)-2-oxopyrrolidine-3-carboxamide]
> 10000 | COc1ccc(CN2CC[C@@](O)(C(=O)NCc3cc(F)cc(Cl)c3)C2=O)cc1 [A182, N-(3-Chloro-5-fluorobenzyl)-(R)-3-hydroxy-1-(4-methoxybenzyl)-2-oxopyrrolidine-3-carboxamide]
10 to 1000 | O=C1CCc2cc(N3CCC(O)(C(=O)NCCc4cccc(F)c4)C3=O)ccc2N1 (stereo not shown) [A183, N-[2-(3-Fluorophenyl)ethyl]-3-hydroxy-2-oxo-1-(2-oxo-1,2,3,4-tetrahydroquinolin-6-yl)-pyrrolidine-3-carboxamide]
10 to 1000 | O=C1CCc2cc(N3CCC(O)(C(=O)NCCc4ccccc4F)C3=O)ccc2N1 (stereo not shown) [A184, N-[2-(2-Fluorophenyl)ethyl]-3-hydroxy-2-oxo-1-(2-oxo-1,2,3,4-tetrahydroquinolin-6-yl)-pyrrolidine-3-carboxamide]
10 to 1000 | CC(=O)Nc1ccc(N2CCC(O)(C(=O)NCc3cccc(F)c3Cl)C2=O)cn1 (stereo not shown) [A186, N-(2-Chloro-3-fluorobenzyl)-1-(6-acetylaminopyridin-3-yl)-3-hydroxy-2-oxopyrrolidine-3-carboxamide]

IC50 [nM] | SMILES
1000 to 10000 | O=C(CN1CCC(O)(C(=O)NCc2cc(F)cc(Cl)c2)C1=O)Nc1ccccc1 (stereo not shown) [A187, N-(3-Chloro-5-fluorobenzyl)-3-hydroxy-2-oxo-1-phenyl-carbamoylmethylpyrrolidine-3-carboxamide]
10 to 1000 | CC(=O)Nc1ccc(N2CCC(O)(C(=O)NCCc3cc(F)cc(F)c3)C2=O)cn1 (stereo not shown) [A188, N-[2-(3,5-Difluorophenyl)ethyl]-1-(6-acetylaminopyridin-3-yl)-3-hydroxy-2-oxopyrrolidine-3-carboxamide]
10 to 1000 | O=C(NCCc1cc(F)cc(Cl)c1)[C@@]1(O)CCN(c2ccc3[nH]ncc3c2)C1=O [A191, N-[2-(3-Chloro-5-fluorophenyl)-ethyl]-(S)-3-hydroxy-1-(1H-indazol-5-yl)-2-oxopyrrolidine-3-carboxamide]
1000 to 10000 | O=C(NCCc1cc(F)cc(Cl)c1)[C@]1(O)CCN(c2ccc3[nH]ncc3c2)C1=O [A192, N-[2-(3-Chloro-5-fluorophenyl)-ethyl]-(R)-3-hydroxy-1-(1H-indazol-5-yl)-2-oxopyrrolidine-3-carboxamide]
10 to 1000 | NC(=O)c1cccc(N2CCC(O)(C(=O)NCc3cccc(F)c3Cl)C2=O)c1 (stereo not shown) [A193, N-(2-Chloro-3-fluorobenzyl)-1-(3-carbamoylphenyl)-3-hydroxy-2-oxopyrrolidine-3-carboxamide]
10 to 1000 | CCNC(=O)c1cc2cc(N3CC[C@](O)(C(=O)NCc4cc(F)cc(Cl)c4)C3=O)ccc2o1 [A194, N-(3-Chloro-5-fluorobenzyl)-(S)-1-(2-ethylcarbamoylbenzofuran-5-yl)-3-hydroxy-2-oxopyrrolidine-3-carboxamide]
> 10000 | CCNC(=O)c1cc2cc(N3CC[C@@](O)(C(=O)NCc4cc(F)cc(Cl)c4)C3=O)ccc2o1 [A195, N-(3-Chloro-5-fluorobenzyl)-(R)-1-(2-ethylcarbamoylbenzofuran-5-yl)-3-hydroxy-2-oxopyrrolidine-3-carboxamide]
10 to 1000 | O=C1CCc2cc(N3CCC(O)(C(=O)NCc4cccc(F)c4Cl)C3=O)ccc2N1 (stereo not shown) [A196, N-(2-Chloro-3-fluorobenzyl)-3-hydroxy-2-oxo-1-(2-oxo-1,2,3,4-tetrahydroquinolin-6-yl)-pyrrolidine-3-carboxamide]
10 to 1000 | O=C1COc2cc(N3CC[C@](O)(C(=O)NCc4cc(F)cc(Cl)c4)C3=O)ccc2N1 [A197, N-(3-Chloro-5-fluorobenzyl)-(S)-3-hydroxy-2-oxo-1-(3-oxo-3,4-dihydro-2H-benzo-1,4-oxazin-7-yl)pyrrolidine-3-carboxamide]
> 10000 | O=C1COc2cc(N3CC[C@@](O)(C(=O)NCc4cc(F)cc(Cl)c4)C3=O)ccc2N1 [A198, N-(3-Chloro-5-fluorobenzyl)-(R)-3-hydroxy-2-oxo-1-(3-oxo-3,4-dihydro-2H-benzo-1,4-oxazin-7-yl)pyrrolidine-3-carboxamide]
10 to 1000 | O=C1CCc2cc(N3CCC(O)(C(=O)NCCc4cc(F)cc(F)c4)C3=O)ccc2N1 (stereo not shown) [A199, N-[2-(3,5-Difluorophenyl)ethyl]-3-hydroxy-2-oxo-1-(2-oxo-1,2,3,4-tetrahydroquinolin-6-yl)-pyrrolidine-3-carboxamide]
10 to 1000 | NC(=O)c1cccc(N2CCC(O)(C(=O)NCCc3cc(F)cc(F)c3)C2=O)c1 (stereo not shown) [A201, N-[2-(3,5-Difluorophenyl)ethyl]-1-(3-carbamoylphenyl)-3-hydroxy-2-oxopyrrolidine-3-carboxamide]
1000 to 10000 | CCOC(=O)C1CCCC(N2CCC(O)(C(=O)NCc3cc(F)cc(Cl)c3)C2=O)C1 (stereo not shown) [A202, Ethyl 3-[3-(3-chloro-5-fluorobenzylcarbamoyl)-3-hydroxy-2-oxopyrrolidin-1-yl]-cyclohexanecarboxylate]
> 10000 | O=C(O)CN1CCC(O)(C(=O)NCc2cc(F)cc(Cl)c2)C1=O (stereo not shown) [A203, [3-(3-Chloro-5-fluorobenzylcarbamoyl)-3-hydroxy-2-oxopyrrolidin-1-yl]-acetic acid]
1000 to 10000 | NC(=O)c1cc(N2CCC(O)(C(=O)NCc3cc(F)cc(Cl)c3)C2=O)cc(C(F)(F)F)c1 (stereo not shown) [A204, N-(3-Chloro-5-fluorobenzyl)-1-(3-carbamoyl-5-trifluoromethyl-phenyl)-3-hydroxy-2-oxo-pyrrolidine-3-carboxamide]
10 to 1000 | CCOC(=O)c1cc2cc(N3CCC(O)(C(=O)NCc4cc(F)cc(Cl)c4)C3=O)ccc2[nH]1 (stereo not shown) [A205, Ethyl 5-[3-(3-chloro-5-fluorobenzylcarbamoyl)-3-hydroxy-2-oxopyrrolidin-1-yl]-1H-indol-2-carboxylate]
10 to 1000 | O=C(NCc1cccc(F)c1Cl)C1(O)CCN(c2ccc3[nH]ccc3c2)C1=O (stereo not shown) [A206, N-(2-Chloro-3-fluorobenzyl)-3-hydroxy-1-(1H-indol-5-yl)-2-oxo-pyrrolidine-3-carboxamide]
10 to 1000 | O=C(NCCc1cc(F)cc(F)c1)C1(O)CCN(c2ccc3[nH]ccc3c2)C1=O (stereo not shown) [A207, N-[2-(3,5-Difluorophenyl)ethyl]-3-hydroxy-1-(1H-indol-5-yl)-2-oxopyrrolidine-3-carboxamide]
